Where a name gives a salt, the structure may show the parent alone. Read-outs that look alike come from different tables or passages of the source. One block for each compound: values may come before it.
Molecular target: T1, human urotensin II receptor (Homo sapiens, UniProt Q9UKP6)
T1 construct: expressed in transfected cells; host or cells: NIH3T3 cells
T1 sequence (Q9UKP6 1-389): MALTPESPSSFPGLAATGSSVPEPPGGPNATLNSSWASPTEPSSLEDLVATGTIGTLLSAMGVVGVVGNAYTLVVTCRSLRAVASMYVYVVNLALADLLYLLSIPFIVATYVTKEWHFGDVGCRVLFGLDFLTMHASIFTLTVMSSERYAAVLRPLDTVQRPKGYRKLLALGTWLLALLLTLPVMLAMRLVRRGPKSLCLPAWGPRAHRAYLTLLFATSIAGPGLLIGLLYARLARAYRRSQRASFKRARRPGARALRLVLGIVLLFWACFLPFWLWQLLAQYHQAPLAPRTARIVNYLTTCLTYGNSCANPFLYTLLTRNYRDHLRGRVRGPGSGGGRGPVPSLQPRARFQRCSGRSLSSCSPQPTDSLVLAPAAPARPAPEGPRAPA
Experiment: Receptor Selection and Amplification (R-SAT) functional assay, NIH3T3 cells transfected with human urotensin II receptor and β-galactosidase marker
Type: cell-based
Settings: for pEC50 / EC50: eight doses in triplicate
Experimental: The functional receptor assay, Receptor Selection and Amplification Technology (R-SAT™), was used (with minor modifications from the procedure described previously (Brann, M. R. U.S. Pat. No. 5,707,798, 1998; Chem. Abstr. 1998, 128, 111548) to screen compounds for efficacy at the UII receptor. The RSAT assay was conducted as described herein.
Briefly, NIH3T3 cells were grown in tissue culture treated rollerbottles to 40-80% confluence in Dulbecco's modified Eagle's medium (DMEM) supplemented with 10% bovine calf serum (Hyclone) and 1% penicillin/streptomycin/glutamine (Invitrogen). Cells were transfected for 12-18 hours with the human urotensin II receptor and the β-galactosidase marker. After transfection, the cells were trypsinized, harvested and frozen in DMEM containing 10% DMSO. Frozen cells were later thawed and tested for a response to a control compound to perform quality control before initiation of pharmacological testing, ensuring the correct pharmacological response and sufficient sensitivity. To initiate the pharmacological assay, cells were thawed rapidly and prepared in DMEM media containing 0.4% calf serum (Hyclone), 30% UltraCulture (Biowhittaker), and 1% penicillin/streptomycin/glutamine (Invitrogen), and then plated at 10,000-40,000 cells per well of a 96½ area plate that contained either the test compounds or reference ligands. Cells were then grown in a humidified atmosphere with 5% ambient CO2 for five days. Media was then removed from the plates and marker gene activity was measured by the addition of the beta-galactosidase substrate ONPG (in PBS with 5% NP-40). The resulting colorimetric reaction was measured in a spectrophotometric plate reader (Titertek Inc.) at […].
pEC50 represents the negative logarithm of the concentration of ligand that caused 50% activation of the basal receptor response. Percent activation was calculated as the difference between the absorbance measurements in the absence of added ligand compared with that in the presence of saturating concentrations of ligand normalized to the absorbance difference for the reference ligand, which was assigned a value of 100%.
Results were determined in R-SAT assays and are expressed as pEC50, the negative of the log EC50 in molarity. Results are the average±standard deviation of 2-X determinations of the EC50 where each compound was tested in eight doses in triplicate.

[1] = NIH3T3, Table 3, percent activation normalized to the reference ligand assigned 100%, read-out: Efficacy
[2] = Table 3, negative of the log EC50 in molarity, average ± standard deviation (or range) of determinations
[3] = NIH3T3, Table 4, % efficacy normalized to UII at 100%
[4] = Table 4, negative of the log EC50 in molarity, average ± standard deviation of 2-5 determinations

Emax [1]: 166 ± 24%
pEC50 [2]: 5.64 ± 0.15
SMILES: Cc1ccccc1NC(=O)NC(CCN(C)C)c1ccc(Cl)cc1 (centres unmarked) [8a, 1-[1-(4-Chlorophenyl)-3-dimethylaminopropyl]-3-(2-methylphenyl)-carbamide oxalate]

Emax [1]: 147 ± 26%
pEC50 [2]: 5.87 ± 0.17
SMILES: COc1cccc(NC(=O)NC(CCN(C)C)c2ccc(Cl)cc2)c1 (centres unmarked) [8b, 1-[1-(4-Chlorophenyl)-3-dimethylaminopropyl]-3-(3-methoxyphenyl)-carbamide oxalate]

Emax [1]: 101 ± 36%
EC50 [2]: 186 nM
SMILES: CN(C)CCC(NC(=O)Nc1ccc(C(C)(C)C)cc1)c1ccc(Cl)cc1 (centres unmarked) [8c, 1-[1-(4-Chlorophenyl)-3-dimethylaminopropyl]-3-(4-tert-butylphenyl)-carbamide oxalate]

Emax [1]: 102 to 119%
EC50 [2]: 63.1 to 145 nM
SMILES: CN(C)CCC(NC(=O)Nc1ccc(Oc2ccccc2)cc1)c1ccc(Cl)cc1 (centres unmarked) [8d, 1-[1-(4-Chlorophenyl)-3-dimethylaminopropyl]-3-(4-phenoxyphenyl)-carbamide oxalate oxalate]

Emax [1]: 166 to 193%
EC50 [2]: 1780 to 2290 nM
SMILES: CN(C)CCC(NC(=O)NCc1ccccc1)c1ccc(Cl)cc1 (centres unmarked) [8e, 1-[1-(4-Chlorophenyl)-3-dimethylaminopropyl]-3-benzyl-carbamide oxalate]

Emax [1]: 75 to 111%
EC50 [2]: 110 to 178 nM
SMILES: CN(C)CCC(NC(=O)Nc1ccc(-c2ccccc2)cc1)c1ccc(Cl)cc1 (centres unmarked) [8f, 1-[1-(4-Chlorophenyl)-3-dimethylaminopropyl]-3-(4-phenylphenyl)-carbamide oxalate]

Emax [1]: 89 to 129%
EC50 [2]: 229 to 380 nM
SMILES: CN(C)CCC(NC(=O)Nc1ccc2ccccc2c1)c1ccc(Cl)cc1 (centres unmarked) [8g, 1-[1-(4-Chlorophenyl)-3-dimethylaminopropyl]-3-(2-naphthyl)-carbamide oxalate]

Emax [1]: 176 to 231%
EC50 [2]: 1820 to 2340 nM
SMILES: COc1ccc(NC(=O)NC(CCN(C)C)c2ccc(Cl)cc2)cc1 (centres unmarked) [8h, 1-[1-(4-Chlorophenyl)-3-dimethylaminopropyl]-3-(4-methoxyphenyl)-carbamide oxalate]

Emax [1]: 93 to 120%
EC50 [2]: 97.7 to 155 nM
SMILES: CN(C)CCC(NC(=O)Nc1ccc(C(F)(F)F)cc1)c1ccc(Cl)cc1 (centres unmarked) [8i, 1-[1-(4-Chlorophenyl)-3-dimethylaminopropyl]-3-(4-trifluoromethylphenyl)-carbamide oxalate]

Emax [3]: 76 ± 5%
EC50 [4]: 1860 nM
SMILES: CN(C)CCC(NC(=O)Cc1ccccc1)c1ccc(Cl)cc1 (centres unmarked) [A1, N-[1-(4-Chlorophenyl)-3-dimethylamino-propyl]-2-phenylacetamide HCl]

Emax [3]: 53 ± 7%
EC50 [4]: 871 nM
SMILES: CN(C)CCC(NC(=O)Cc1ccc(C(F)(F)F)cc1)c1ccc(Cl)cc1 (centres unmarked) [A2, N-[1-(4-Chlorophenyl)-3-dimethylamino-propyl]-2-(4-trifluoromethylphenyl)acetamide HCl]

Emax [3]: 65 ± 18%
EC50 [4]: 1510 nM
SMILES: COc1ccc(CC(=O)NC(CCN(C)C)c2ccc(Cl)cc2)cc1 (centres unmarked) [A3, N-[1-(4-Chlorophenyl)-3-dimethylamino-propyl]-2-(4-methoxyphenyl)acetamide HCl]

Emax [3]: 139 ± 5%
EC50 [4]: 1660 nM
SMILES: CN(C)CCC(NC(=O)CCc1ccccc1)c1ccc(Cl)cc1 (centres unmarked) [A4, N-[1-(4-Chlorophenyl)-3-dimethylamino-propyl]-3-phenyl-propionamide HCl]

Emax [3]: 73 ± 10%
EC50 [4]: 1120 nM
SMILES: CN(C)CCC(NC(=O)CCc1ccc(C(F)(F)F)cc1)c1ccc(Cl)cc1 (centres unmarked) [A5, N-[1-(4-Chlorophenyl)-3-dimethylamino-propyl]-3-(4-trifluoromethylphenyl) propionamide HCl]

Continued, compound first:

SMILES: Cc1cccc(Cl)c1C(=O)NC(CCN(C)C)c1ccc(Cl)cc1.O=C(O)C(=O)O (centres unmarked) [5k, N-[1-(4-Chlorophenyl)-3-dimethylamino-propyl]-6-chloro-2-methyl-benzamide oxalate]
Emax [1]: 105 ± 4%
pEC50 [2]: 5.29 ± 0.09

SMILES: CN(C)CCC(NC(=O)c1ccc2c(c1)OCO2)c1ccc(Cl)cc1.O=C(O)C(=O)O (centres unmarked) [5l, N-(1-(4-chlorophenyl)-3-(dimethylamino)propyl)benzo [d][1,3]dioxole-5-carboxamide oxalate]
Emax [1]: 148 ± 32%
pEC50 [2]: 5.67 ± 0.17

SMILES: Cc1cc(C)c(C(=O)NC(CCN(C)C)c2ccc(Cl)cc2)cc1C.O=C(O)C(=O)O (centres unmarked) [5m, N-[1-(4-Chlorophenyl)-3-dimethylaminopropyl]-2,4,5-trimethyl-benzamide oxalate]
Emax [1]: 152 ± 20%
pEC50 [2]: 5.75 ± 0.22

SMILES: CN(C)CCC(NC(=O)c1ccc2ccccc2c1)c1ccc(Cl)cc1 (centres unmarked) [5n, N-[1-(4-Chlorophenyl)-3-dimethylamino-propyl]-2-naphthyl-carboxamide oxalate]
Emax [1]: 109 ± 18%
EC50 [2]: 407 nM

SMILES: CN(C)CCC(NC(=O)c1ccc(-c2ccccc2)cc1)c1ccc(Cl)cc1.O=C(O)C(=O)O (centres unmarked) [5o, N-[1-(4-Chlorophenyl)-3-dimethylamino-propyl]-4-phenyl-benzamide oxalate]
Emax [1]: 116 ± 11%
pEC50 [2]: 7.11 ± 0.01

SMILES: CN(C)CCC(NC(=O)c1ccc(Oc2ccccc2)cc1)c1ccc(Cl)cc1.O=C(O)C(=O)O (centres unmarked) [5p, N-[1-(4-Chlorophenyl)-3-dimethylaminopropyl]-4-phenoxy-benzamide oxalate]
Emax [1]: 91 ± 17%
pEC50 [2]: 7.18 ± 0.2

SMILES: CN(C)CCC(NC(=O)c1ccc(C(F)(F)F)cc1)c1ccc(Cl)cc1 (centres unmarked) [5q, N-[1-(4-Chlorophenyl)-3-dimethylaminopropyl]-4-trifluoromethyl-benzamide oxalate]
Emax [1]: 100 to 127%
EC50 [2]: 66.1 to 102 nM

SMILES: CN(C)CCC(NC(=O)Cc1ccccc1)c1ccc(Cl)cc1.O=C(O)C(=O)O (centres unmarked) [5r, N-[1-(4-Chlorophenyl)-3-dimethylaminopropyl]-2-phenyl-acetamide oxalate]
Emax [1]: 154 ± 34%
pEC50 [2]: 5.71 ± 0.16

SMILES: Cc1ccc(S(=O)(=O)NC(CCN(C)C)c2ccc(Cl)cc2)cc1.O=C(O)C(=O)O (centres unmarked) [6a, N-[1-(4-Chlorophenyl)-3-dimethylaminopropyl]-4-methyl-benzenesulfonamide oxalate]
Emax [1]: 74 ± 10%
pEC50 [2]: 5.19 ± 0.09

SMILES: Cc1ccccc1NC(=O)OC(CCN(C)C)c1ccc(Cl)cc1 (centres unmarked) [7a, N-[1-(4-Chlorophenyl)-3-dimethylaminopropyloxycarbonyl]-2-methylphenyl-amine]
Emax [1]: 170 ± 21%
pEC50 [2]: 5.41 ± 0.07

SMILES: COc1cccc(NC(=O)OC(CCN(C)C)c2ccc(Cl)cc2)c1 (centres unmarked) [7b, N-[1-(4-Chlorophenyl)-3-dimethylaminopropyloxycarbonyl]-3-methoxyphenyl-amine]
Emax [1]: 133 ± 36%
pEC50 [2]: 5.95 ± 0.09

SMILES: CN(C)CCC(OC(=O)Nc1ccc(C(C)(C)C)cc1)c1ccc(Cl)cc1 (centres unmarked) [7c, N-[1-(4-Chlorophenyl)-3-dimethylaminopropyloxycarbonyl]-4-tert-butylphenyl-amine]
Emax [1]: 105 ± 8%
EC50 [2]: 1780 nM

SMILES: CN(C)CCC(OC(=O)Nc1ccc(Oc2ccccc2)cc1)c1ccc(Cl)cc1 (centres unmarked) [7d, N-[1-(4-Chlorophenyl)-3-dimethylaminopropyloxycarbonyl]-4-phenoxyphenyl-amine]
Emax [1]: 96%
EC50 [2]: 126 nM

SMILES: CN(C)CCC(OC(=O)NCc1ccccc1)c1ccc(Cl)cc1 (centres unmarked) [7e, N-[1-(4-Chlorophenyl)-3-dimethylaminopropyloxycarbonyl]-benzyl-amine]
Emax [1]: 180 ± 8%
pEC50 [2]: 5.67 ± 0.11

SMILES: CN(C)CCC(OC(=O)Nc1ccc2ccccc2c1)c1ccc(Cl)cc1 (centres unmarked) [7g, N-[1-(4-Chlorophenyl)-3-dimethylaminopropyloxycarbonyl]-2-naphthyl-amine]
Emax [1]: 74 to 107%
EC50 [2]: 263 to 759 nM

SMILES: COc1ccc(NC(=O)OC(CCN(C)C)c2ccc(Cl)cc2)cc1 (centres unmarked) [7h, N-[1-(4-Chlorophenyl)-3-dimethylaminopropyloxycarbonyl]-4-methoxyphenyl-amine]
Emax [1]: 130 to 223%
EC50 [2]: 955 to 2450 nM

SMILES: CN(C)CCC(OC(=O)Nc1ccc(C(F)(F)F)cc1)c1ccc(Cl)cc1 (centres unmarked) [7i, N-[1-(4-Chlorophenyl)-3-dimethylaminopropyloxycarbonyl]-4-trifluoromethylphenyl-amine]
Emax [1]: 70 to 114%
EC50 [2]: 178 to 309 nM
